Assay results from publication PMC10487843, “Evaluation of Anticancer and Anti-Inflammatory Activities of Some Synthetic Rearranged Abietanes” (International Journal of Molecular Sciences, 2023).
In brackets after ≈: the same amount, converted by molar mass. Like-named read-outs stand apart in the source and are kept apart here.

Experiments:
[1] = test system: human colon adenocarcinoma (HT29); test: MTT cell viability assay, HT29; assay type: cell-based; conditions: for IC80: 80% growth inhibition
Source text: In this study, we employed the MTT (3-(4,5-dimethyl thiazol-2-yl)-2,5-diphenyltetrazolium bromide) colorimetric assay to evaluate the cytotoxic activity of selected abietanes (compounds 5, 7, 13, 17, and 19) against three tumor cell lines: human colon adenocarcinoma (HT29), human hepatocarcinoma (HepG2), and murine melanoma (B16–F10). The MTT assay relied on the conversion of MTT to formazan by viable cells, with the formazan concentration proportional to the number of viable cells. The concentrations required for 50 and 80% growth inhibition (IC50 and IC80) were determined for each compound.
The human colorectal adenocarcinoma cell line HT29 (ECACC no. 9172201; ATCC no. HTB-38), the human hepatocarcinoma cell line HepG2 (ECACC no. 85011430), the mouse melanoma cells B16–F10 (ATCC no. CRL-6475), and the murine monocyte/macrophage like RAW 264.7 cell line (ATCC no, TIB-71) were obtained from the cell bank of the University of Granada, Spain. The tumor cell lines were cultured in DMEM (Dulbecco’s modified Eagle’s medium) supplemented with 2 mM glutamine, 10% heat-inactivated FCS (fetal calf serum), and 50 μg/mL of gentamicin (for all cancer cell lines). The RAW 264.7 cell line was cultured in RPMI1640 medium, supplemented with 2 mM glutamine, 10% heat-inactivated FCS, and 50 μg/mL of gentamicin. All cell lines were incubated at 37 °C, in an atmosphere of 5% CO2 and 95% humidity. The culture media were changed every 48 h, and the confluent cultures were separated with a trypsin solution (0.25% EDTA). In all experiments, monolayer cells were grown to 80–90% confluence in sterile cell culture flasks.
The effects of the compounds on the cell viability were established using the MTT method (Sigma, St. Louis, MO, USA). The cytotoxicity of the compounds was assessed by measuring the absorbance of MTT dye staining of metabolically competent cells. The cells were cultivated in 96-well plates at 6.0 × 10^3 cells/mL for the HT29 and RAW 264.7 cell lines, at 5.0 × 10^3 cells/mL for B16–F10 cells, and 15.0 × 10^3 cells/mL for the HepG2 cell line, with a final volume of 200 μL per well being incubated with the different products (0–100 μg/mL). After 72 h, 100 μL of MTT solution (0.5 mg/mL) in 50% of PBS and 50% of the medium was added to each well. Following incubation for 1.5 h, formazan was resuspended in 100 μL of DMSO, and each concentration was tested in triplicate. The cell viability relative to the untreated control cells was determined by measuring the absorbance at 570 nm using an ELISA plate reader (Tecan Sunrise MR20–301, TECAN, Grödig, Austria).

[2] = RAW 264.7 cell viability (MTT); assay type: cell-based, murine; conditions: mouse, RAW 264.7 monocyte/macrophage cells; RAW 264.7, MTT, 0–100 μg/mL; read-out: IC50 (cytotoxicity)
Description: To evaluate the cytotoxic effects of the synthesized abietanes (5, 7, 13, 17, and 19) on RAW 264.7 monocyte/macrophage murine cells and to establish sub-cytotoxic concentrations for anti-inflammatory testing, we conducted cell viability assays using the MTT method. Each compound was tested at increasing concentration levels (0–100 μg/mL), and the IC50 values were determined by interpolation in the sigmoidal cytotoxicity curves (Figure 8). […] Additionally, sub-cytotoxic concentrations corresponding to ¾ IC50, ½ IC50, and ¼ IC50 were determined and selected for subsequent anti-inflammatory assays, ensuring that the observed effects were specifically attributed to the anti-inflammatory properties of the compounds rather than cytotoxicity. The human colorectal adenocarcinoma cell line HT29 (ECACC no. 9172201; ATCC no. HTB-38), the human hepatocarcinoma cell line HepG2 (ECACC no. 85011430), the mouse melanoma cells B16–F10 (ATCC no. CRL-6475), and the murine monocyte/macrophage like RAW 264.7 cell line (ATCC no, TIB-71) were obtained from the cell bank of the University of Granada, Spain. The tumor cell lines were cultured in DMEM (Dulbecco’s modified Eagle’s medium) supplemented with 2 mM glutamine, 10% heat-inactivated FCS (fetal calf serum), and 50 μg/mL of gentamicin (for all cancer cell lines). The RAW 264.7 cell line was cultured in RPMI1640 medium, supplemented with 2 mM glutamine, 10% heat-inactivated FCS, and 50 μg/mL of gentamicin. All cell lines were incubated at 37 °C, in an atmosphere of 5% CO2 and 95% humidity. The culture media were changed every 48 h, and the confluent cultures were separated with a trypsin solution (0.25% EDTA). In all experiments, monolayer cells were grown to 80–90% confluence in sterile cell culture flasks. The effects of the compounds on the cell viability were established using the MTT method (Sigma, St. Louis, MO, USA). The cytotoxicity of the compounds was assessed by measuring the absorbance of MTT dye staining of metabolically competent cells. The cells were cultivated in 96-well plates at 6.0 × 10^3 cells/mL for the HT29 and RAW 264.7 cell lines, at 5.0 × 10^3 cells/mL for B16–F10 cells, and 15.0 × 10^3 cells/mL for the HepG2 cell line, with a final volume of 200 μL per well being incubated with the different products (0–100 μg/mL). After 72 h, 100 μL of MTT solution (0.5 mg/mL) in 50% of PBS and 50% of the medium was added to each well. Following incubation for 1.5 h, formazan was resuspended in 100 μL of DMSO, and each concentration was tested in triplicate. The cell viability relative to the untreated control cells was determined by measuring the absorbance at 570 nm using an ELISA plate reader (Tecan Sunrise MR20–301, TECAN, Grödig, Austria).

[3] = Homo sapiens, HT-29, 72 h, read-out: IC50

Row | IC50 ([1]; 72 h, listed as Precursor (13)) [µg/mL] | IC50 [1, 3] [µg/mL] | SMILES | IC80 ([1]; Homo sapiens, HT-29, 72 h) [µg/mL] | IC50 at 72 h [2] [µg/mL]
1 | 2.67 ± 0.82 (≈ 8.89 µM) | 2.7 ± 0.8 (≈ 8.99 µM) | CC(C)C1=CC2=C(C(=O)C1=O)[C@@]1(C)CCCC(C)(C)[C@@H]1CC2 [Compound 13] | 5.19 ± 0.68 (≈ 17.3 µM) | 8.18 ± 1.86 (≈ 27.2 µM)
2 | – | 6.69 ± 1.18 (≈ 21.6 µM) | CC(C)C1=CC2=C(C(=O)C1=O)C1=CC(=O)CC(C)(C)[C@@]1(C)C=C2 [Compound 5, Pygmaeocin B] | 9.73 ± 1.18 (≈ 31.3 µM) | 0.14 ± 0.09 (≈ 0.451 µM)
